Measured values: US8153692B2, “Oral preparation for preventing or improving skin dryness” (Kyowa Hakko Bio Co., Ltd., priority 2005, dated 2012)

System: HOS:HR-1 mice
Experiment: Skin water content after oral ingestion of citrulline in feed (SKICON-200)
Assay type: in vivo
Conditions: CE-2 feed containing 1.0% by weight of L-citrulline, measured weekly from 1 to 5 weeks, relative to CE-2 feed group
Experimental: HOS:HR-1 mice (male, 5 weeks old, purchased from Charles River Co., Ltd.) were used in the test. The breeding conditions were that the room temperature was 22±2° C., the humidity was 35±15% and a feed and water were freely ingested.
Each test group consisted of 10 mice. A commercially available powder feed CE-2 (manufactured by Clea Japan) was fed to mice of the first group, CE-2 containing 1.0% by weight of L-citrulline (manufactured by Kyowa Hakko Kogyo Co., Ltd.) was fed to mice of the second group.
The water content of the skin surface on the back thigh upper portion of each mouse was measured with SKICON-200 (manufactured by IBS) every one week, from a week to five weeks after the start-up of the feeding of each feed. The measurement was conducted ten times for each mouse, and an average value of each mouse was obtained. Further, an average value of each test group was calculated.
The relative epidermal water content was calculated according to the following formula using the average value. Relative epidermal water content (%)=(A2/A1)×100 • A1: Epidermal water content of the first group • A2: Epidermal water content of the second group

Question: How did the “water content of the skin (relative epidermal water content)” value turn out when `NC(=O)NCCC[C@H](N)C(=O)O` [citrulline, L-citrulline] was run?
Answer: markedly improved
